Molecules are shown by their SMILES. pIC50: −log10 of the molar value. Structures can show the parent of a compound that is named as a salt.

The target of this experiment is T1, human glycine transporter type 1 (Gly-T1) (Homo sapiens, UniProt P48067).
T1 construct: JAR) cells endogenously expressing human glycine transporter type 1 (Gly-T1); endogenous in cells; host or cells: JAR (human placental choriocarcinoma) cells
T1 sequence (P48067 1-706): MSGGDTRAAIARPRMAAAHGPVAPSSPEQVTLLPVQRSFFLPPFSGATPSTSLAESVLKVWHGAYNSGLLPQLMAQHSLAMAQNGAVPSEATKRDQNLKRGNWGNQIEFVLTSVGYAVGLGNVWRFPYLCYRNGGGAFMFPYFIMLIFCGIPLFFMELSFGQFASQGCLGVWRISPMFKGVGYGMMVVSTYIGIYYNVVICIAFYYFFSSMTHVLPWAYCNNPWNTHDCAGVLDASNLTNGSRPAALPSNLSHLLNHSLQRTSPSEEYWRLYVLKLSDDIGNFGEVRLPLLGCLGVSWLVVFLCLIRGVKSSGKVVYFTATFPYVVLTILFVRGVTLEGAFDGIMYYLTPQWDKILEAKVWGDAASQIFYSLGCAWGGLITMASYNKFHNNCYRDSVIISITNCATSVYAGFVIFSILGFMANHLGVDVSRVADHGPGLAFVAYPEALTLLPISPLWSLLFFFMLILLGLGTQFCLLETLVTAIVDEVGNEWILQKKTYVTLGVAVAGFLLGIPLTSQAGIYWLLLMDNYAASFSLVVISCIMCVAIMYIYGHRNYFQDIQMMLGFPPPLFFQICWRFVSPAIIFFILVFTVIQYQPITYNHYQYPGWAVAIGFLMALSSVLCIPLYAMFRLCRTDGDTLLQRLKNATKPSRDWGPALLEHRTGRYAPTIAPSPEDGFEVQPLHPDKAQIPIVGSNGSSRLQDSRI
Kind of experiment: Glycine Transporter 1 (GlyT1) uptake assay, [14C] glycine uptake in JAR cells. The experiment is classed as cell-based. The following applies: approximate IC50; inhibition of [14C] glycine (5 μM) uptake, JAR cells endogenously expressing human Gly-T1. The procedure:
This cell-based assay measures the ability of test compounds to inhibit the uptake of glycine by the glycine transporter type 1. Human placental choriocarcinoma (JAR) cells endogenously expressing human glycine transporter type 1 (Gly-T1) were used for this assay. […] Cells were plated at a density of 4×10^4 cells/well and grown at 37° C. in a humidified atmosphere of 5% CO2 for 24 h.
Culture medium was removed from Cytostar plate and JAR cells were incubated with 30 μl of Uptake buffer (120 mM NaCl, 2 mM KCl, 1 mM CaCl2, 1 mM MgCl2, 10 mM Hepes, 5 mM alanine, pH 7.5) with or without compound for 5 min. […] After incubation at room temperature for the desired time usually 1-2 h, sealed 96-well Cytostar plates were counted on a TopCount (Packard).
IC50 curves were generated from the raw data collected from the TopCount and fitted with a four-parameter logistic equation using in-house data analysis tool, Activity Base.
A word on the pIC50: it is −log10 of the IC50, conventionally taken in molar units. The low end stands for a high IC50, the high end for a low IC50. In the case of `C[C@@H]1CN([C@H](c2ccccc2)c2cccc(-c3ccccc3)c2)CCN1CC(=O)O` [Cpd 30, [(R)-4-((R)-biphenyl-3-yl-phenyl-methyl)-2-methyl-piperazin-1-yl]-acetic acid], the negative logarithm of the IC50 (pIC50) is 9.03.

As to `C[C@@H]1CN(C(c2cccc(C(F)(F)F)c2)C2CC2)CCN1CC(=O)O` (stereo partly drawn) [Cpd 77, 2-((R)-4-(cyclopropyl(3-(trifluoromethyl)phenyl)methyl)-2-methylpiperazin-1-yl)acetic acid dihydrochloride salt], the pIC50 was 7.39.

Take `Cc1cccc(-c2ccc([C@@H](c3ccccc3)N3CCN(CC(=O)O)[C@H](C)C3)cc2)c1` [Cpd 48, [(R)-2-methyl-4-[(R)-(3′-methyl-biphenyl-4-yl)-phenyl-methyl]-piperazin-1-yl]-acetic acid]: the pIC50 is 8.67.

`Cc1cccc([C@@H](c2ccccc2)N2CCN(CC(=O)O)[C@H](C)C2)c1` [Cpd 34, 2-((R)-2-methyl-4-((R)-phenyl(m-tolyl)methyl)piperazin-1-yl)acetic acid] gave a pIC50 of 7.75.

As to `C[C@@H]1CN([C@H](c2ccccc2)c2cccc(Br)c2)CCN1CC(=O)O` [Cpd 20, 2-((R)-4-((R)-(3-bromophenyl)(phenyl)methyl)-2-methylpiperazin-1-yl)acetic acid dihydrochloride salt], the pIC50 was 8.82.

Molecule `C[C@@H]1CN(C(c2ccc(Cl)cc2)c2ccc(Cl)cc2)CCN1[C@H](C)C(=O)O` [Cpd 82, (R)-2-((R)-4-(bis(4-chlorophenyl)methyl)-2-methylpiperazin-1-yl)propanoic acid] showed a pIC50 of 5.66.

On to `C[C@@H]1CN([C@H](c2ccccc2)c2ccc(C#Cc3ccccc3)cc2)CCN1CC(=O)O` [Cpd 55A, 2-((R)-2-methyl-4-((R)-phenyl(4-(2-phenylethynyl)phenyl)methyl)piperazin-1-yl)acetic acid], for which the pIC50 is 8.82.

`C[C@@H]1CN([C@H](c2ccccc2)c2cccc(C(F)(F)F)c2)CCN1CC(=O)O` [Cpd 24, 2-((R)-2-methyl-4-((R)-phenyl(3-(trifluoromethyl)phenyl)methyl)piperazin-1-yl)acetic acid dihydrochloride salt] gave a pIC50 of 8.40.

With `Cc1ccc(-c2ccc([C@@H](c3ccccc3)N3CCN(CC(=O)O)[C@H](C)C3)cc2)cc1` [Cpd 49, [(R)-2-methyl-4-[(R)-(4′-methyl-biphenyl-4-yl)-phenyl-methyl]-piperazin-1-yl]-acetic acid], the pIC50 is 8.14.

Turning to `C[C@@H]1CN(C(c2ccc(Cl)cc2)c2ccc(Cl)cc2)CCN1CC(=O)O` [Cpd 78, (R)-2-(4-(bis(4-chlorophenyl)methyl)-2-methylpiperazin-1-yl)acetic acid], the pIC50 is 8.32.

As for `O=C(O)CN1CCN([C@H](c2ccccc2)c2cccc(C(F)(F)F)c2)CC1` [Cpd 1, (R)-2-(4-(phenyl(3-(trifluoromethyl)phenyl)methyl)piperazin-1-yl)acetic acid], the pIC50 is 7.10.

The record behind these values is patent US9663476B2, “Glycine transporter-1 inhibitors” (AMGEN INC., priority 2006, dated 2017).
